Measurements: PubChem BioAssay AID1117325 (Cheminformatics & Chemogenomics Research Group (CCRG), …, 2015)
Where “and” joins values, the source holds several entries; their conditions need not be identical. Identical values can stand only once. Calls of active or inactive are those of the source. No rule for the calls is given here. *1 amine or outer side, *2 acyl side, *3 side chain or, on linkers, in order; H or OH if unused. Where a SMILES comes first, the peptide text is derived from it. Bridges are numbered along the chain shown (N, C = ends). Roman numbers before positions name the chains, in order. [ ]: non-standard residue; d: D form. Actinocin(9to1) = Cc1c2oc3c(C)ccc(C(=O)[*:1])c3nc-2c(C(=O)[*:2])c(N)c1=O; NMeV = CN[C@H](C(=O)O)C(C)C; Sar = CNCC(=O)O

test system: C2C12 WNT3A-conditioned, nuclear beta-catenin; assay: activation of β-catenin in the nucleus of C2C12, concentration-response, cell-based, Wnt-3a CM-treated, half-maximal inhibitory concentration (AID 1117325)

Compound	IC50
COC(=O)Nc1nc2ccc(S(=O)c3ccccc3)cc2[nH]1 (centres undefined)	468 nM
CC[C@@]1(O)C(=O)OCc2c1cc1n(c2=O)Cc2cc3c(CN(C)C)c(O)ccc3nc2-1	134 nM
COC(=O)Nc1nc2ccc(C(=O)c3cccs3)cc2[nH]1	235 nM
Nc1ccc2cc3ccc(N)cc3nc2c1	5990 nM (inactive)
CCCCCCNC(=O)n1cc(F)c(=O)[nH]c1=O	4980 nM
Cc1ccc2nc(N)[nH]c(=O)c2c1Sc1ccncc1	710 nM
CC[C@@]1(O)C(=O)OCc2c1cc1n(c2=O)Cc2c-1nc1ccccc1c2/C=N/OC(C)(C)C	1160 nM
C#C[C@]1(O)CC[C@H]2[C@@H]3CCc4cc(OC5CCCC5)ccc4[C@H]3CC[C@@]21C	> 20000 nM (inactive)
C=CC(=O)Nc1cc2c(Nc3ccc(F)c(Cl)c3)ncnc2cc1OCCCN1CCOCC1	1000 nM
CC(C)(C)C(=O)OCOP(=O)(COCCn1cnc2c(N)ncnc21)OCOC(=O)C(C)(C)C	704 nM
[O-][n+]1ccccc1SSc1cccc[n+]1[O-]	991 nM
CC[C@]1(O)C[C@@H]2CN(CCc3c([nH]c4ccccc34)[C@@](C(=O)OC)(c3cc4c(cc3OC)N(C)[C@H]3[C@@](O)(C(=O)OC)[C@H](OC(C)=O)[C@]5(CC)C=CCN6CC[C@]43[C@@H]65)C2)C1	3.5 nM and 5.8 nM
O=[N+]([O-])C(Br)(CO)CO	> 20000 nM (inactive)
CCC1=C[C@@H]2CN(C1)Cc1c([nH]c3ccccc13)[C@@](C(=O)OC)(c1cc3c(cc1OC)N(C)[C@H]1[C@@](O)(C(=O)OC)[C@H](OC(C)=O)[C@]4(CC)C=CCN5CC[C@]31[C@@H]54)C2	8.9 nM
Cc1cc(CC(C)CC(C)(C)C)n(O)c(=O)c1 (centres undefined)	591 nM
CN1C[C@H](CNC(=O)OCc2ccccc2)C[C@@H]2c3cccc4c3c(cn4C)C[C@H]21	> 20000 nM (inactive)
Cc1ccccc1C(=O)Nc1ccc(C(=O)N2CCCC(N(C)C)c3ccccc32)cc1 (centres undefined)	4560 nM
O=C(CCl)c1ccc(Cl)cc1Cl	373 nM
Cc1nc(Nc2ncc(C(=O)Nc3c(C)cccc3Cl)s2)cc(N2CCN(CCO)CC2)n1	104 nM
CN(Cc1cnc2nc(N)nc(N)c2n1)c1ccc(C(=O)N[C@@H](CCC(=O)O)C(=O)O)cc1	26.5 nM
CN(C)C(=S)SSC(=S)N(C)C	> 20000 nM (inactive)

Compound	IC50
Cc1cc(O)c2ccccc2c1O	4390 nM
O=C(Nc1ccc([N+](=O)[O-])cc1Cl)c1cc(Cl)ccc1O	1570 nM
CCN(CC)CCNc1ccc(CO)c2sc3ccccc3c(=O)c12	> 20000 nM (inactive)
C=C(C)[C@H]1Cc2c(ccc3c2O[C@@H]2COc4cc(OC)c(OC)cc4[C@@H]2C3=O)O1	2990 nM
COc1cc(C=C2CCC/C(=C\c3ccc(O)c(OC)c3)C2=O)ccc1O	5040 nM (inactive)
CC[C@@H]([C@H](C)O)n1ncn(-c2ccc(N3CCN(c4ccc(OC[C@@H]5CO[C@@](Cn6cncn6)(c6ccc(F)cc6F)C5)cc4)CC3)cc2)c1=O	5290 nM (inactive)
Cc1nc(N)nc(N)c1-c1ccc(Cl)c(Cl)c1	50.4 nM
Cc1nc2ccc(CN(C)c3ccc(C(=O)N[C@@H](CCC(=O)O)C(=O)O)s3)cc2c(=O)[nH]1	12.7 nM
CC[C@]1(O)C[C@H]2CN(CCc3c([nH]c4ccccc34)[C@@](C(=O)OC)(c3cc4c(cc3OC)N(C=O)[C@H]3[C@@](O)(C(=O)OC)[C@H](OC(C)=O)[C@]5(CC)C=CCN6CC[C@]43[C@@H]65)C2)C1	4 nM
COc1cc([C@@H]2c3cc4c(cc3[C@@H](O[C@@H]3O[C@@H]5CO[C@@H](C)O[C@@H]5[C@H](O)[C@@H]3O)[C@H]3COC(=O)[C@H]23)OCO4)cc(OC)c1O	> 20000 nM (inactive)
CCCCCCCCCCCCCCC[C@H](O)[C@@H](N)CO	> 20000 nM (inactive)
Cc1ccc2c(Br)cc(Br)c(O)c2n1	> 20000 nM (inactive)
CC(=O)[C@]1(O)Cc2c(O)c3c(c(O)c2[C@@H](O[C@H]2C[C@H](N)[C@H](O)[C@H](C)O2)C1)C(=O)c1ccccc1C3=O	100 nM
COc1cc([C@@H]2c3cc4c(cc3[C@H](O)[C@H]3COC(=O)[C@H]23)OCO4)cc(OC)c1OC	13.1 nM
NC(=NCCCCCCN=C(N)/N=C(\N)Nc1ccc(Cl)cc1)/N=C(\N)Nc1ccc(Cl)cc1	> 20000 nM (inactive)
Oc1c(Cl)cc(Cl)cc1Sc1cc(Cl)cc(Cl)c1O	> 20000 nM (inactive)
COCc1c(C(C)C)nc(C(C)C)c(/C=C/[C@@H](O)C[C@@H](O)CC(=O)O)c1-c1ccc(F)cc1	6670 nM (inactive)
CCCSc1ccc2nc(NC(=O)OC)[nH]c2c1	1280 nM
O=C1C(I)=CC(=C(c2cc(I)c(O)c(I)c2)c2ccccc2C(=O)O)C=C1I	> 20000 nM (inactive)
O=[N+]([O-])c1ccc(O)c2ncccc12	> 20000 nM (inactive)
COC(=O)Nc1nc2ccc(C(=O)C3CC3)cc2[nH]1	349 nM

Compound	IC50
NC(N)=NN=C(/C=C/c1ccc([N+](=O)[O-])o1)/C=C/c1ccc([N+](=O)[O-])o1	> 20000 nM (inactive)
Cc1cc(=O)c2c(O)c3c(O)cc(=O)c4c3c3c(cc(O)c1c23)C(C)(C)C=4O	1070 nM
CN1CC[C@H](c2c(O)cc(O)c3c(=O)cc(-c4ccccc4Cl)oc23)[C@H](O)C1	190 nM
Cc1cc2c(C(C)C)c(O)c(O)c(C=O)c2c(O)c1-c1c(C)cc2c(C(C)C)c(O)c(O)c(C=O)c2c1O	3490 nM
CCCCCCCCCCCCCC[N+](C)(C)Cc1ccccc1	> 20000 nM (inactive)
C[n+]1c2cc(N)ccc2cc2ccc(N)cc21 (tested in a mixture with another compound)	> 20000 nM (inactive)
Cc1ccc([N+](=O)[O-])[c]2c1[O][Hg]2	1510 nM
CN(C)c1ccc(C(=C2C=CC(=[N+](C)C)C=C2)c2ccccc2)cc1	> 20000 nM (inactive)
COc1cccc2c1C(=O)c1c(O)c3c(c(O)c1C2=O)C[C@@](O)(C(C)=O)C[C@@H]3O[C@H]1C[C@H](N)[C@H](O)[C@H](C)O1	369 nM
Oc1c(I)cc(Cl)c2cccnc12	> 20000 nM (inactive)
COC(=O)c1nc(Cl)c(Cl)nc1N	308 nM
CC(=O)Oc1ccc(C2(c3ccc(OC(C)=O)cc3)Oc3ccccc3NC2=O)cc1	> 20000 nM (inactive)
CCCCCCCCCCCCNCCNCCNCC(=O)O	> 20000 nM (inactive)
O[C@@H](c1cc(C(F)(F)F)nc2c(C(F)(F)F)cccc12)[C@H]1CCCCN1	> 20000 nM (inactive)
CCc1nc(N)nc(N)c1-c1ccc(Cl)cc1	860 nM
COc1cc(NCc2ccc3nc(N)nc(N)c3c2C)cc(OC)c1OC	3.3 nM
CCCCCCCCCCOCC(O)CN (centres undefined)	> 20000 nM (inactive)
OCCN1CCN(CCCN2c3ccccc3Sc3ccc(Cl)cc32)CC1	> 20000 nM (inactive)
C[C@@]12C(=O)OC(=O)[C@]1(C)C1CCC2O1	> 20000 nM (inactive)
O=C1OC2(c3cc(Br)c(O)cc3Oc3c2cc(Br)c(O)[c]3[Hg])c2ccccc21 (centres undefined)	16900 nM (inactive)
CSc1ccc2c(c1)C(N1CCN(C)CC1)Cc1ccccc1S2 (centres undefined)	> 20000 nM (inactive)

Compound	IC50
CCCCc1ccc2nc(NC(=O)OC)[nH]c2c1	33.6 nM
c1ccc2c(c1)Sc1ccccc1N2CC1CN2CCC1CC2 (centres undefined)	> 20000 nM (inactive)
O=C1c2c(O)ccc(O)c2C(=O)c2c(NCCNCCO)ccc(NCCNCCO)c21	30.3 nM
CCCCCCCCCCCCCC[N+](C)(C)C	> 20000 nM (inactive)
CCCOc1ccc2nc(NC(=O)OC)[nH]c2c1	365 nM
COC(=O)Nc1nc2ccc(Sc3ccccc3)cc2[nH]1	4840 nM
COc1cccc2c1C(=O)c1c(O)c3c(c(O)c1C2=O)C[C@@](O)(C(=O)CO)C[C@@H]3O[C@H]1C[C@H](N)[C@H](O[C@@H]2CCCCO2)[C@H](C)O1	> 20000 nM (inactive)
COc1ccc2cc1Oc1ccc(cc1)C[C@H]1c3c(cc4c(c3Oc3cc5c(cc3OC)CCN(C)[C@@H]5C2)OCO4)CCN1C	5630 nM (inactive)
O=c1c(-c2ccccc2)c1-c1ccccc1	> 20000 nM (inactive)
Clc1cc(Cl)c(OCC#CI)cc1Cl	> 20000 nM (inactive)
CCCN(CCC)C(=O)C(CCC(=O)OCCCN1CCN(CCOC(=O)Cc2c(C)n(C(=O)c3ccc(Cl)cc3)c3ccc(OC)cc23)CC1)NC(=O)c1ccccc1 (centres undefined)	> 20000 nM (inactive)
Cc1c2oc3c(C)ccc(C(=O)N[C@@H]4C(=O)N[C@H](C(C)C)C(=O)N5CCC[C@H]5C(=O)N(C)CC(=O)N(C)[C@@H](C(C)C)C(=O)O[C@@H]4C)c3nc-2c(C(=O)N[C@@H]2C(=O)N[C@H](C(C)C)C(=O)N3CCC[C@H]3C(=O)N(C)CC(=O)N(C)[C@@H](C(C)C)C(=O)O[C@@H]2C)c(N)c1=O (I: T[dV]P[Sar][NMeV] / II: T[dV]P[Sar][NMeV]; ester I:1-I:C, II:1-II:C; linker I:N-II:N via Actinocin(9to1))	37 nM
CCCCC1C(=O)N(c2ccccc2)N(c2ccc(O)cc2)C1=O (centres undefined)	> 20000 nM (inactive)
CCCCCCCCCCCC(=O)[O][Sn]([CH2]CCC)([CH2]CCC)[O]C(=O)CCCCCCCCCCC	> 20000 nM (inactive)
COc1cccc2c1C(=O)c1c(O)c3c(c(O)c1C2=O)C[C@@](O)(C(=O)CO)CC3OC1CC(N2CCOC(OC)C2)C(O)C(C)O1 (some centres undefined)	13.5 nM
Cc1cc(C2CCCCC2)n(O)c(=O)c1	> 20000 nM (inactive)
CC(C)C[C@H](NC(=O)[C@H](CCc1ccccc1)NC(=O)CN1CCOCC1)C(=O)N[C@@H](Cc1ccccc1)C(=O)N[C@@H](CC(C)C)C(=O)[C@@]1(C)CO1	29.2 nM
COC(=O)Nc1nc2ccc(C(=O)c3ccccc3)cc2[nH]1	1740 nM
COC(=O)[C@H]1[C@H]2C[C@@H]3c4[nH]c5cc(OC)ccc5c4CCN3C[C@H]2C[C@@H](OC(=O)/C=C/c2ccc(O)c(OC)c2)[C@@H]1OC	> 20000 nM (inactive)
O=C1C2CC=CCC2C(=O)N1SC(Cl)(Cl)Cl (centres undefined)	> 20000 nM (inactive)
CC(=O)O[C@@]12CO[C@@H]1C[C@H](O)[C@@]1(C)C(=O)[C@H](O)C3=C(C)[C@@H](OC(=O)[C@H](O)[C@@H](NC(=O)OC(C)(C)C)c4ccccc4)C[C@@](O)([C@@H](OC(=O)c4ccccc4)[C@H]21)C3(C)C	65.2 nM
